Experimental data taken from patent publication US9162979B2, “1,5-Diary1-2-alkylpyrrole-3-substituted nitro esters, selective COX-2 inhibitors and nitric oxide donors” (ROTTAPHARM BIOTECH S.R.L., priority 2010, dated 2015).

Experiments:
[1] = biological target: COX-2 (Mus musculus (Mouse), UniProt Q05769); assay: Evaluation of COX-2 activity: PGE2 production in LPS-stimulated J774 cells; format: cell-based, murine; settings: J774 cells stimulated 24 hours with LPS 10 μg/mL; PGE2 by radio-immunological assay; read-out: Cyclooxygenase inhibition COX-2 IC50
Experimental: The murine monocyte/macrophage cell line J774 is grown in Dulbecco's modified Eagle's medium (DMEM), enriched with glutamine (2 mM), HEPES (25 mM), penicillin (100 u/mL), streptomycin (100 μg/mL), 10% of fetal bovine serum (FBS) and 1.2% of sodium pyruvate. […] Just before the experiments, the culture medium is replaced with fresh medium without FBS to avoid interference during the radio-immunological phase and the cells are stimulated as described below.
The supernatants are collected for evaluating, by means of radio-immunological assays, the amount of PGE2 produced.
In each group of experiments, wells were used in triplicate for the different treatment conditions. […] The data were evaluated using the sigmoidal dose-response equation (variable slope) (GraphPad software). IC50 and the 95% precision intervals were calculated with the program GraphPad Instat (GraphPad software).

[2] = test system: mouse abdominal contraction (writhing) induced by acetic acid; assay: Abdominal constriction test induced by acetic acid; format: in vivo
Experimental: (§1) Male Swiss albino mice (23-25 g) and Wistar rats (150-200 g) were used.
The antinociceptive activity was determined by the mouse abdominal contraction test using acetic acid (0.6%), which induces writhing, according to Koster's method (Fed. Proc., 1959, 18, 412-418). The number of stretching movements was counted for 10 minutes, starting 5 minutes after injection of acetic acid. The results relating to analgesic activity in the abdominal constriction test with representative compounds of the invention are shown in Table 10.
The test was carried out using 10 animals in the treated group and 20 in the control group (CMC); all the compounds were administered per os with the exception of the compound of Example 8, which was administered i.p.

[3] = test system: isolated rings of thoracic aorta; assay: Evaluation of release of NO: vasorelaxing activity on endothelium-denuded aortic rings contracted with KCl; design: species or system rat; settings: for vasorelaxing effect in the presence of ODQ: ODQ 1 μM, guanylate cyclase inhibitor; for IC50 / Emax: Rattus norvegicus; for IC50: read-out: NO release properties pIC50 (vasorelaxing potency) (converted); for Emax: relative to contractile tone induced by 20 mM KCl, 1 nM-10 μM, read-out: NO release properties Emax (maximum vasorelaxing effect)
Experimental: The activity of the compounds was evaluated on isolated rings of thoracic aorta of normotensive male Wistar rats (250-350 g). After light anaesthesia with ether, the rats were sacrificed by cervical dislocation and exsanguination. The aortas were immediately excised, extraneous tissues were removed and the endothelial layer was removed by gently rubbing the surface with a hypodermic needle. Rings of aorta with a width of 5 mm were suspended, with a preload of 2 g, in 20-ml organ baths, containing a solution of “Tyrode” (composition of the saline solution in mM: NaCl 136.8; KCl 2.95; CaCl2 1.80; MgSO4 1.05; NaH2PO4 0.41; NaHCO3 11.9; glucose 5.5), thermostatically controlled at 37° C. and kept in an atmosphere of O2 (95%) and CO2 (5%). […] were recorded by means of an isometric transducer (FTO3 Erba), connected to a microdynamometer (Buxco Electronics).
60 minutes after preparation, removal of the endothelium was confirmed by acetylcholine (ACH) (10 μM) treatment of the vascular rings pre-contracted with KCl (20 mM). Relaxation of less than 10% of the contraction induced by KCl was considered as representative of acceptable removal of the endothelial layer, whereas organs displaying relaxation ≧10% were discarded. 40 minutes after confirmation of complete removal of the endothelium, the aortas were contracted by treatment with a single dose of KCl (20 mM) and after the contraction reached a stable plateau, increasing cumulative concentrations (with progressive increments of 3 times) of the test compounds (1 nM-10 μM) were added. It was found from preliminary experiments that the contraction induced by KCl (20 mM) remained stable in a tonic state for at least 40 minutes. The same experiments were performed in the presence of a well-known inhibitor of guanylate cyclase: ODQ 1 μM, which was incubated in aorta preparations after confirmation of removal of the endothelium.
Analysis of the results. The vasorelaxing activity was evaluated as a percentage (%) relative to the contractile tone induced by 20 mM KCl. The pharmacodynamic efficacy parameter (Emax) corresponds to the maximum vasorelaxing effect induced by the molecule tested, expressed as percentage relative to the contractile tone induced by 20 mM KCl. When the limit concentration of 10 μM (the highest concentration administered) of the test compounds has not reached the maximum effect, the efficacy parameter (Emax) corresponds to the vasorelaxing effect induced by the limit concentration (expressed as percentage relative to the contractile tone induced by 20 mM KCl). The pharmacodynamic parameter of potency of the compounds was expressed as pIC50 calculated as the negative logarithm of the molar concentration of test compound that reduces the contractile tone induced by 20 mM KCl by half. […] The parameters of efficacy and potency were expressed as mean±standard error, for 5-10 experiments. The experimental data were analysed by the program GraphPad Prism 3.0.

[4] = test system: rat paw oedema induced by carrageenan; assay: Volume of oedema test (carrageenan); format: in vivo; settings: 10 mg/kg per os
Experimental: The rat paw volumes were measured using a pletismometer. Four hours after injecting carrageenan 1.0% (0.1 ml injection), the volume of the right hind-paw was measured and compared with that of controls treated with a saline/carrageenan solution. The rats were administered the test compounds 3.5 hours after the carrageenan. The results are given as paw volume expressed in ml. The results relating to the analgesic and anti-oedemic activity in the carrageenan test for some representative compounds of the invention are shown in Table 11.
(§2) The test was performed using 6 animals per group, all the compounds were administered per os, 30 min before the test. The carrageenan is administered 2 h before the test.

[5] = test system: carrageenan-induced inflammatory state in the rat; assay: Carrageenan test: nociceptive threshold (weight supported); format: in vivo; settings: 10 mg/kg per os
Experimental: as §1
The nociceptive threshold in the rat was determined with an analgesiometer, as described by Leighton et al. (Br. J. Pharmacol., 1988, 93, 553-560), the pressure was measured before the treatment and after 30 and 60 min. To reproduce the inflammatory state in the rat, carrageenan was administered i.p. (0.1 ml, 1%) 4 h before the test.
as §2

[6] = test system: rat liver homogenate; assay: Evaluation of release of nitrites in hepatic homogenate; settings: nitrite after 4 hours, 1 mM, 37° C., as percentage of SNP
Text: By evaluating the time-dependent increase in nitrite concentrations in the liver homogenate, it was possible to extrapolate two descriptive parameters:
Time (in minutes) required for an amount of nitrite to be released by the test compound equal to half its maximum release.

[7] = concentration reducing contractile tone induced by 20 mM KCl by half

Sequence of COX-2 (Q05769 18-604): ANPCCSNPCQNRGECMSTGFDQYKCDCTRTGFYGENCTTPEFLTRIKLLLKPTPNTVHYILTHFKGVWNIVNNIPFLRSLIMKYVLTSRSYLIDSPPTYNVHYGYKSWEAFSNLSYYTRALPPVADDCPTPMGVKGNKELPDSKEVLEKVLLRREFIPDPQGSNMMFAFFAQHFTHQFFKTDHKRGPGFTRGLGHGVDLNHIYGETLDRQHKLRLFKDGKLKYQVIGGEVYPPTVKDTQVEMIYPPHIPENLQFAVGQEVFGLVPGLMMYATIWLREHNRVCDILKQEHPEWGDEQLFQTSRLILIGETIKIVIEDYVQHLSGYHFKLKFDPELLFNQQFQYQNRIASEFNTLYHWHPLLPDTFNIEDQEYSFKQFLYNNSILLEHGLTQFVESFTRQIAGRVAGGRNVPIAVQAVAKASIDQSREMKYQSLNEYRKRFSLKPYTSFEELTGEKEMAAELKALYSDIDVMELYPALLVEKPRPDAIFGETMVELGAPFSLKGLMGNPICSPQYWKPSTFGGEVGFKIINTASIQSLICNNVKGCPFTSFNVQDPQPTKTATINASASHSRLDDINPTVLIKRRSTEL

Compound	IC50 [1] [µM]	N writhes ([2]; 20 mg/kg per os)	N writhes ([2]; 40 mg/kg per os)	melting point [°C]	IC50 [3, 7] [µM]	Emax [3] [%]	other results
Cc1c(CCOCCO)cc(-c2ccc(S(C)(=O)=O)cc2)n1-c1cccc(F)c1 [Example 38-II]	0.046	26.8 ± 3.2	17.3 ± 3.5				
Cc1c(C(N)C(=O)OCCCCO[N+](=O)[O-])cc(-c2ccc(S(C)(=O)=O)cc2)n1-c1ccc(F)cc1 (racemic) [Example 20, (R,S)-4-(Nitrooxy)butyl-[2-amino-2-[1-(4-fluorophenyl)-2-methyl-5-(4-methylsulphonylphenyl)-1H-pyrrol-3-yl]]-acetate]	1		19.8 ± 2.4	108	1.55	93 ± 1	vasorelaxing effect in the presence of ODQ [3]: not fully antagonized by ODQ
Cc1c(CC(=O)OCCCCO[N+](=O)[O-])cc(-c2ccc(S(C)(=O)=O)cc2)n1-c1cccc(F)c1 [Example 12, 4-(Nitrooxy)butyl-2-[1-(3-fluorophenyl)-2-methyl-5-(4-methylsulphonylphenyl)-1H-pyrrol-3-yl]acetate]	0.069		25.1 ± 2.3	114	3.98	57 ± 14	
Cc1c(CC(=O)NCCO[N+](=O)[O-])cc(-c2ccc(S(C)(=O)=O)cc2)n1-c1ccc(F)cc1 [Example 23, N-[(2-Nitroxy)ethyl]-2-[1-(4-fluorophenyl)-2-methyl-5-(4-methylsulphonylphenyl)-1H-pyrrol-3-yl]acetamide]	0.24			135	4.9	68 ± 6	NO release properties pIC50 (vasorelaxing potency) [3, 7]: 5.31 ± 0.05
COc1ccc(-n2c(-c3ccc(S(C)(=O)=O)cc3)cc(CC(=O)OCCCCO)c2C)cc1 [Example 13-II, 4-(Hydroxy)butyl-2-[1-(4-methoxyphenyl)-2-methyl-5-(4-methylsulphonylphenyl)-1H-pyrrol-3-yl]acetate]	1.1		14.7 ± 2.5				
COc1ccc(-n2c(-c3ccc(S(C)(=O)=O)cc3)cc(CC(=O)OCCO[N+](=O)[O-])c2C)cc1 [Example 4, 2-(Nitrooxy)ethyl-[1-(4-methoxy-phenyl)-2-methyl-5-(4-methylsulphonylphenyl)-1H-pyrrol-3-yl]-acetate]	0.17		17.7 ± 2.3	122	0.178	77 ± 2	
COc1ccc(-n2c(-c3ccc(S(C)(=O)=O)cc3)cc(CC(=O)OCCCO[N+](=O)[O-])c2C)cc1 [Example 9, 3-(Nitroxy)propyl-[1-(4-methoxyphenyl)-2-methyl-5-(4-methylsulphonylphenyl)-1H-pyrrol-3-yl]-acetate]	0.002	18.4 ± 3.1		115		41 ± 11	
Cc1c(CC(=O)NC(CCO[N+](=O)[O-])C(=O)O)cc(-c2ccc(S(C)(=O)=O)cc2)n1-c1ccc(F)cc1 (racemic) [Example 32, (R,S)-4-(Nitroxy)-2-[[1-(4-fluorophenyl)-2-methyl-5-(4-methylsulphonylphenyl)-1H-pyrrol-3-yl]acetamido]butanoic Acid]	1.6	14.6 ± 2.7				42 ± 9	N writhes ([2]; 10 mg/kg per os): 22.8 ± 3.0
Cc1c(C(N)C(=O)OCCO[N+](=O)[O-])cc(-c2ccc(S(C)(=O)=O)cc2)n1-c1ccc(F)cc1 (racemic) [Example 16, (R,S)-2-(Nitrooxy)ethyl-[2-amino-2-[1-(4-fluorophenyl)-2-methyl-5-(4-methylsulphonylphenyl)-1H-pyrrol-3-yl]]-acetate]	0.74		24.9 ± 3.0		1.12	80 ± 7	
Cc1ccc(-c2cc(C(F)(F)F)nn2-c2ccc(S(N)(=O)=O)cc2)cc1 [Celecoxib, reference compound]							Oedema Volume [4]: 1.91 ± 0.04 mL; Weight supported (g) After treatment 30 min [5]: 52.9 ± 3.1 g; Weight supported (g) After treatment 60 min [5]: 48.3 ± 3.4 g; Weight supported (g) Before treatment ([5]; baseline before treatment): 30.9 ± 2.6 g
Cc1c(CCOCCO)cc(-c2ccc(S(C)(=O)=O)cc2)n1-c1ccc(F)c(F)c1 [Example 39-II]	0.42	24.8 ± 3.0		138 to 140			
Cc1c(C(N)C(=O)OCCCO[N+](=O)[O-])cc(-c2ccc(S(C)(=O)=O)cc2)n1-c1ccc(F)cc1 (racemic) [Example 18, (R,S)-3-(Nitrooxy)propyl-[2-amino-2-[1-(4-fluorophenyl)-2-methyl-5-(4-methylsulphonylphenyl)-1H-pyrrol-3-yl]]-acetate]	0.82	18.1 ± 3.0	13.5 ± 2.8		2.19	84 ± 2	N writhes ([2]; 3 mg/kg per os): 26.9 ± 2.6; N writhes ([2]; 10 mg/kg per os): 21.3 ± 2.5; vasorelaxing effect in the presence of ODQ [3]: not fully antagonized by ODQ
Cc1c(CC(=O)OCCCO[N+](=O)[O-])cc(-c2ccc(S(C)(=O)=O)cc2)n1-c1cccc(F)c1 [Example 8, 3-(Nitroxy)propyl-[1-(3-fluorophenyl)-2-methyl-5-(4-methylsulphonylphenyl)-1H-pyrrol-3-yl]-acetate]	0.007				0.162	82 ± 1	N writhes ([2]; 20 mg/kg i.p.): 16.9 ± 2.4
O=C(NCCO[N+](=O)[O-])c1cccnc1 [Nicorandil, reference compound]							Maximum release (%) [6]: 18 ± 2%
